Data: PMC8579695, “The Stringent Response Inhibits 70S Ribosome Formation in Staphylococcus aureus by Impeding GTPase-Ribosome Interactions” (mBio, 2021)

Test system: RA-GTPases RsgA, RbgA, Era, and HflX
Assay: DRaCALA binding and competition assays across the four RA-GTPases
Set-up: species or system Staphylococcus aureus
Details: 100 μM cold competitor
Excerpt: FIG 1 Nucleotide binding characteristics of RA-GTPases. (A) Schematic representation of the domain structure of Era, RsgA, RbgA, and HflX from S. aureus. The conserved GTPase domain (G domain) is colored in green, and accessory domains are shown. (B) Determination of binding affinities and Kd values for ^32P-labeled GTP, GDP, ppGpp, and pppGpp with purified recombinant 6×His-tagged RbgA using DRaCALA, as previously described ([36]). Each point is the mean average of at least three technical replicates, and error bars indicate standard deviations. (C) Binding assay (DRaCALA) of recombinant RbgA binding to ^32P-labeled GTP, ppGpp, and pppGpp in the presence of an excess of cold competitor (GTP, GDP, ppGpp, pppGpp, or ATP). All experiments were carried out in triplicate, with error bars representing standard deviations. […]
Supplementary file : FIG S2 Examination of the binding of GDP, ppGpp, GTP, and pppGpp to RA-GTPases by DRaCALA. […] Kd values were determined from the binding curves as previously described ([36]). […]
Structural data places (p)ppGpp within the GTP-binding site of the RA-GTPase RbgA ([6]), indicating a competitive mode of inhibition. […] Based on our measured affinities (Table 1), we speculate that both GDP and ppGpp will outcompete other nucleotides for occupancy of the binding site. […]

## Nc1nc2c(ncn2[C@@H]2O[C@H](COP(=O)(O)OP(=O)(O)O)[C@@H](OP(=O)(O)OP(=O)(O)O)[C@H]2O)c(=O)[nH]1 [ppGpp]
  competition of cold unlabeled nucleotide with 32P-labeled GTP, ppGpp, pppGpp: competing more effectively
